# Source: publication PMC9919861, “Homoleptic Complexes of Heterocyclic Curcuminoids with Mg(II) and Cu(II): First Conformationally Heteroleptic Case, Crystal Structures, and Biological Properties” (Molecules, 2023)
# Key:
# [1] = system: lipid peroxidation in rat brain homogenate; experiment: Inhibition of lipid peroxidation (TBARS) in rat brain homogenate, FeSO4-induced; assay type: biochemical; conditions: for Inhibition (%) of lipid peroxidation / TBARS / IC50: mean ± SEM, n = 3; for IC50: rat brain homogenate, TBARS
# Description: Adult male Wistar rats (200–250 g) were provided by the Instituto de Fisiología Celular, Universidad Nacional Autónoma de México (UNAM). The procedures and care of animals were conducted in conformity with the Mexican Official Norm for Animal Care and Handling NOM-062-ZOO-1999. They were maintained at 23 ± 2 °C on a 12/12 h light-dark cycle with ad libitum access to food and water.
# Animal sacrifice was carried out avoiding unnecessary pain. The rats were sacrificed with CO2. The cerebral tissue (whole brain) was rapidly dissected and homogenized in phosphate-buffered saline (PBS) solution (0.2 g of KCl, 0.2 g of KH2PO4, 8 g of NaCl, and 2.16 g of NaHPO4.7H2O/L, pH adjusted to 7.4) as described elsewhere to produce a 1/10 (w/v) homogenate. The homogenate was centrifuged at 800 rcf (relative centrifugal field) for 10 min. The supernatant protein content was measured using Folin and Ciocalteu’s phenol reagent and adjusted with PBS at 2.666 mg of protein/mL.
# As an index of lipid peroxidation, TBARS levels were measured using rat brain homogenates according to the method described by Ng and co-workers, with some modifications. A supernatant (375 µL) was added with 50 µL of 20 µM EDTA and 25 µL of each sample concentration dissolved in DMSO (25 µL of DMSO for the control group) and incubated at 37 °C for 30 min. The lipid peroxidation was started adding 50 µL of freshly prepared 100 µM FeSO4 solution (final concentration 10 µM) and incubated at 37 °C for 1h. The TBARS measurements were obtained as described by Ohkawa and co-workers, with some modifications. To each tube 500 µL of TBA reagent (0.5% 2-thiobarbituric acid in 0.05 N NaOH and 30% trichloroacetic acid, in 1:1 ratio) was added and the final suspension was cooled on ice for 10 min, centrifuged at 13,400 rcf for 5 min and heated at 80 °C in a water bath for 30 min. After cooling at room temperature, the absorbance of 200 µL of supernatant was measured at λ = 540 nm in a Microplate Reader Synergy/HT BIOTEK Instrument, Inc., Winooski, VT, USA. The concentration of TBARS was calculated by interpolation on a standard curve of tetra-methoxypropane (TMP) as a precursor of MDA [38]. Results are expressed as n moles of TBARS per mg of protein. The inhibition ratio (IR [%]) was calculated using the formula IR = (C − E) × 100/C, where C is the control absorbance and E is the sample absorbance. Butylated hydroxytoluene (BHT) and α tocopherol were used as positive standards. All data are presented as mean ± standard error (SEM). The data were analyzed by one-way analysis of variance (ANOVA) followed by Dunnett’s test for comparison against a control. Values of p ≤ 0.05 (*) and p ≤ 0.01 (**) were considered statistically significant.
# [2] = Cytotoxicity towards healthy cell line; assay type: cell-based, monkey; conditions: monkey, COS-7 kidney cells; COS7; 25 μM; read-out: % of Inhibition (cytotoxic screening)
# [3] = system: K562 (human chronic myelogenous leukemia); experiment: Cytotoxicity, sulforhodamine B (SRB) microculture assay; assay type: cell-based; conditions: Homo sapiens, 25 μM, read-out: % of Inhibition (cytotoxic screening)
# Description: (§1) The cytotoxicity of all compounds was tested against six cancer cell lines: U251 (human glioblastoma cell line), PC-3 (human prostate adenocarcinoma), K562 (human chronic myelogenous leukemia), HCT-15 (human colon adenocarcinoma), MCF-7 (human mammary adenocarcinoma), and SKLU-1 (human lung adenocarcinoma). Cell lines were supplied by the U.S. National Cancer Institute (NCI). The cell lines were cultured in an RPMI-1640 medium supplemented with 10% fetal bovine serum, […] L-glutamine, 10,000 units/mL penicillin G sodium, 10,000 µg/mL streptomycin sulfate, 25 µg/mL amphotericin B (Invitrogen/Gibco™, Thermo Fisher Scientific, Waltham, MA, USA), and 1% non-essential amino acids (Gibco). They were maintained at 37 °C in a humidified atmosphere with 5% CO2. […] The human tumor cytotoxicity was determined using the protein-binding dye sulforhodamine B (SRB) in a microculture assay to measure cell growth, as described in the protocols established by the NCI [39, 40, 41].
# [4] = system: U251 (human glioblastoma cell line); experiment: as above; assay type: cell-based; conditions: Homo sapiens; for inhibition at 25 µM: U-251, 25 μM, read-out: % of Inhibition (cytotoxic screening)
# Description: as §1
# [5] = system: PC-3 (human prostate adenocarcinoma); experiment: as above; assay type: cell-based; conditions: Homo sapiens; for inhibition at 25 µM: read-out: % of Inhibition (cytotoxic screening)
# Description: as §1
# [6] = system: HCT-15 (human colon adenocarcinoma); experiment: as above; assay type: cell-based; conditions: Homo sapiens, 25 μM, read-out: % of Inhibition (cytotoxic screening)
# Description: as §1
# [7] = system: SKLU-1 (human lung adenocarcinoma); experiment: as above; assay type: cell-based; conditions: Homo sapiens; for inhibition at 25 µM: SK-LU-1, 25 μM, read-out: % of Inhibition (cytotoxic screening)
# Description: as §1
# [8] = system: MCF-7 (human mammary adenocarcinoma); experiment: as above; assay type: cell-based; conditions: Homo sapiens, MCF7, 25 μM, read-out: % of Inhibition (cytotoxic screening)
# Description: as §1
# [9] = concentration 1 (unit not given)
# [10] = concentration 10 (unit not given)
# [11] = concentration 100 (unit not given)
SMILES,Inhibition (%) of lipid peroxidation ([1]; 17.78 μM),TBARS ([1]; 17.78 μM),Inhibition (%) of lipid peroxidation ([1]; 31.62 μM),TBARS ([1]; 31.62 μM),Inhibition (%) of lipid peroxidation ([1]; 56.23 μM),TBARS ([1]; 56.23 μM),"% of Inhibition (lipoperoxidation screening) [1, 9]","% of Inhibition (lipoperoxidation screening) [1, 10]","% of Inhibition (lipoperoxidation screening) [1, 11]",IC50 [1],inhibition at 25 µM [2],inhibition at 25 µM [3],inhibition at 25 µM [4],inhibition at 25 µM [5],inhibition at 25 µM [6],inhibition at 25 µM [7],inhibition at 25 µM [8],further results
"O=C(/C=C(O)/C=C/c1cccs1)/C=C/c1cccs1 [ThiopheneCurc, Thiophenecurcumin]",40.94 ± 0.36%,3.157 ± 0.139 nmol/mg prot.,61.81 ± 1.08%,2.042 ± 0.116 nmol/mg prot.,71.25 ± 1.79%,1.528 ± 0.035 nmol/mg prot.,0.23%,25.43%,51.90%,22.02 ± 0.15 µM,0%,4.4%,0%,14.8%,0%,0%,13.4%,Inhibition (%) of lipid peroxidation ([1]; 10 μM): 17.68 ± 0.97%; TBARS ([1]; 10 μM): 4.398 ± 0.177 nmol/mg prot.; Inhibition (%) of lipid peroxidation ([1]; 100 μM): 73.06 ± 3.06%; TBARS ([1]; 100 μM): 1.425 ± 0.094 nmol/mg prot.; Inhibition (%) of lipid peroxidation ([1]; 177.83 μM): 66.63 ± 3.83%; TBARS ([1]; 177.83 μM): 1.766 ± 0.119 nmol/mg prot.
"O=C(/C=C(O)/C=C/c1ccco1)/C=C/c1ccco1 [FuranCurc, Furancurcumin]",13.14 ± 5.84%,8.634 ± 0.462 nmol/mg prot.,48.97 ± 13.11%,5.091 ± 1.356 nmol/mg prot.,81.06 ± 1.43%,1.891±0.178 nmol/mg prot.,−6.24%,1.59%,93.46%,33.9 ± 4.65 µM,46.2%,6.4%,0%,10.8%,0%,0%,0%,Inhibition (%) of lipid peroxidation ([1]; 13.34 μM): 5.6 ± 5.31%; TBARS ([1]; 13.34 μM): 9.385 ± 0.416 nmol/mg prot.; Inhibition (%) of lipid peroxidation ([1]; 23.71 μM): 25.93 ± 9.98%; TBARS ([1]; 23.71 μM): 7.356 ± 0.928 nmol/mg prot.; Inhibition (%) of lipid peroxidation ([1]; 42.17 μM): 64.24 ± 10.44%; TBARS ([1]; 42.17 μM): 3.590±1.114 nmol/mg prot.; Inhibition (%) of lipid peroxidation ([1]; 74.13 μM): 88.25 ± 1.57%; TBARS ([1]; 74.13 μM): 1.167±0.148 nmol/mg prot.; IC50 ([4]; U-251): 11.7 ± 2.9 µM; IC50 [5]: 35.9 ± 3.9 µM; IC50 ([7]; SK-LU-1): 15.5 ± 2 µM
